For 25 compounds, IC50 results are on record in US7238701B2, “Substituted tetrahydrobenzothienopyrimidinamine compounds useful for treating hyper-proliferative disorders” (Bayer Pharmaceuticals Corporation, priority 2003, dated 2007).

Structures are written as SMILES.

In test [1] the test system is A431cells (human epidermoid carcinoma). The test can be described thus: In vitro tumor cell proliferation assay (Cell Titer-Glo luminescent cell viability), A431 cells. The class given is cell-based. The settings on record: A-431, 72 h, 72 hours drug exposure, 10% Fetal Bovine Serum, ATP luminescence readout, read-out: IC50 (50% inhibition of cell proliferation). The text has this: (§1) In vitro Tumor Cell Proliferation Assay
(§2) The tumor cell proliferation assay used to test the compounds of the present invention involves a readout called Cell Titer-Glow® Luminescent Cell Viability Assay developed by Promega (Cunningham, B A “A Growing Issue: Cell Proliferation Assays, Modern kits ease quantification of cell growth” The Scientist 2001, 15(13), 26, and Crouch, S P et al., “The use of ATP bioluminescence as a measure of cell proliferation and cytotoxicity” Journal of Immunological Methods 1993, 160, 81–88), that measures inhibition of cell proliferation. Generation of a luminescent signal corresponds to the amount of ATP present, which is directly proportional to the number of metabolically active (proliferating) cells.
(§3) A431cells (human epidermoid carcinoma, ATCC # HTB-20) and BT474 (human breast carcinoma, ATCC # CRL-1555) were plated at a density of 2.5×10^3 cells/well in 96 well black-clear bottom tissue culture plates in RPMI media with 10% Fetal Bovine Serum and incubated at 37° C. Twenty-four hours later, test compounds are added at a final concentration range from as high 100 μM to as low 64 pM depend on the activities of the tested compounds in serial dilutions at a final DMSO concentration of 0.1%. Cells were incubated for 72 hours at 37° C. in complete growth media after addition of the test compound. After 72 hours of drug exposure, the plates were equilibrated to room temperature for approximately 30 min. Then, using a Promega Cell Titer Glo Luminescent® assay kit, lysis buffer containing 100 microliters of the enzyme luciferase and its substrate, luciferin mixture, was added to each well. The plates were mixed for 2 min on orbital shaker to ensure cell lysis and incubated for 10 min at room temperature to stabilize luminescence signal. The samples were read on VICTOR 2 using Luminescence protocol, and analyzed with Analyze5 software to generate IC50 values.
On the technique in general: Cellular ATP, detected with luciferase, serves as a proxy for viable cell number.

The subject of test [2] is BT474 (human breast carcinoma). Kind of test: In vitro tumor cell proliferation assay (Cell Titer-Glo luminescent cell viability), BT474 cells. The settings on record: BT-474, 72 hours drug exposure, 10% Fetal Bovine Serum, ATP luminescence readout, read-out: IC50 (50% inhibition of cell proliferation). The class given is cell-based.
Text: as §1, §2, §3

As for `CS(=O)(=O)CCNC(=O)CC1CCc2c(sc3ncnc(Nc4cccc(Br)c4)c23)C1` (centres unmarked) [Example 77, 2-{4-[(3-bromophenyl)amino]-5,6,7,8-tetrahydro[1]benzothieno[2,3-d]pyrimidin-7-yl}-N-[2-(methylsulfonyl)ethyl]acetamide], the IC50 in test [1] and in test [2] was below 5 µM throughout.
Take `Brc1cccc(Nc2ncnc3sc4c(c23)CCC(CCNCCN2CCOCC2)C4)c1` (centres unmarked) [Example 78, N-(3-bromophenyl)-7-(2-{[2-(4-morpholinyl)ethyl]amino}ethyl)-5,6,7,8-tetrahydro[1]benzothieno[2,3-d]pyrimidin-4-amine]: the IC50 in test [1] and in test [2] was below 5 µM each time.
Turning to `Brc1cccc(Nc2ncnc3sc4c(c23)CCC(CCN2CCCCC2)C4)c1` (centres unmarked) [Example 79, N-(3-bromophenyl)-7-[2-(1-piperidinyl)ethyl]-5,6,7,8-tetrahydro[1]benzothieno[2,3-d]pyrimidin-4-amine], the IC50 in test [1] and in test [2] was below 5 µM throughout.
As for `CN1CCN(CCC2CCc3c(sc4ncnc(Nc5cccc(Br)c5)c34)C2)CC1` (centres unmarked) [Example 80, N-(3-bromophenyl)-7-[2-(4-methyl-1-piperazinyl)ethyl]-5,6,7,8-tetrahydro[1]benzothieno[2,3-d]pyrimidin-4-amine], the IC50 in test [1] and in test [2] was below 5 µM in each case.
As to `O=C(CC1CCc2c(sc3ncnc(Nc4cccc(Br)c4)c23)C1)N1CCCC1` (centres unmarked) [Example 81, N-(3-bromophenyl)-7-[2-oxo-2-(1-pyrrolidinyl)ethyl]-5,6,7,8-tetrahydro[1]benzothieno[2,3-d]pyrimidin-4-amine], the IC50 in test [1] and in test [2] was below 50 µM each time.
On to `COCCNC(=O)CC1CCc2c(sc3ncnc(Nc4cccc(Br)c4)c23)C1` (centres unmarked) [Example 82, 2-{4-[(3-bromophenyl)amino]-5,6,7,8-tetrahydro[1]benzothieno[2,3-d]pyrimidin-7-yl}-N-(2-methoxyethyl)acetamide], for which the IC50 in test [1] and in test [2] was below 5 µM in each case.
In the case of `COCCN(C)C(=O)CC1CCc2c(sc3ncnc(Nc4cccc(Br)c4)c23)C1` (centres unmarked) [Example 83, 2-{4-[(3-bromophenyl)amino]-5,6,7,8-tetrahydro[1]benzothieno[2,3-d]pyrimidin-7-yl}-N-(2-methoxyethyl)-N-methylacetamide], the IC50 was below 5 µM in test [1] and below 50 µM in test [2].
For the compound `CS(=O)(=O)CCNCCC1CCc2c(sc3ncnc(Nc4cccc(Br)c4)c23)C1` (centres unmarked) [Example 84, N-(3-bromophenyl)-7-(2-{[2-(methylsulfonyl)ethyl]amino}ethyl)-5,6,7,8-tetrahydro[1]benzothieno[2,3-d]pyrimidin-4-amine], the IC50 in test [1] and in test [2] was below 5 µM in each case.
Take `Brc1cccc(Nc2ncnc3sc4c(c23)CCC(CCN2CCCC2)C4)c1` (centres unmarked) [Example 85, N-(3-bromophenyl)-7-[2-(1-pyrrolidinyl)ethyl]-5,6,7,8-tetrahydro[1]benzothieno[2,3-d]pyrimidin-4-amine]: the IC50 in test [1] and in test [2] was below 5 µM throughout.
Regarding `COCCNCCC1CCc2c(sc3ncnc(Nc4cccc(Br)c4)c23)C1` (centres unmarked) [Example 86, N-(3-bromophenyl)-7-{2-[(2-methoxyethyl)amino]ethyl}-5,6,7,8-tetrahydro[1]benzothieno[2,3-d]pyrimidin-4-amine], the IC50 in test [1] and in test [2] was below 5 µM each time.
Consider `COCCN(C)CCC1CCc2c(sc3ncnc(Nc4cccc(Br)c4)c23)C1` (centres unmarked) [Example 87, N-(3-bromophenyl)-7-{2-[(2-methoxyethyl)(methyl)amino]ethyl}-5,6,7,8-tetrahydro[1]benzothieno[2,3-d]pyrimidin-4-amine], for which the IC50 in test [1] and in test [2] was below 5 µM each time.
For the compound `Brc1cccc(Nc2ncnc3sc4c(c23)CCC(CCn2ccnc2)C4)c1` (centres unmarked) [Example 88, N-(3-bromophenyl)-7-[2-(1H-emidazol-1-yl)ethyl]-5,6,7,8-tetrahydro[1]benzothieno[2,3-d]pyrimidin-4-amine], the IC50 in test [1] and in test [2] was below 5 µM in each case.
Regarding `COc1ccc(NCCC2CCc3c(sc4ncnc(Nc5cccc(Br)c5)c34)C2)cc1` (centres unmarked) [Example 89, N-(3-bromophenyl)-7-{2-[(4-methoxyphenyl)amino]ethyl}-5,6,7,8-tetrahydro[1]benzothieno[2,3-d]pyrimidin-4-amine], the IC50 in test [1] and in test [2] was below 50 µM throughout.
Turning to `COCCC1CCc2c(sc3ncnc(Nc4cccc(Br)c4)c23)C1` (centres unmarked) [Example 90, N-(3-bromophenyl)-7-(2-methoxyethyl)-5,6,7,8-tetrahydro[1]benzothieno[2,3-d]pyrimidin-4-amine], the IC50 in test [1] and in test [2] was below 50 µM throughout.
As to `COCCN1CCN(C(=O)CC2CCc3c(sc4ncnc(Nc5cccc(Br)c5)c34)C2)CC1` (centres unmarked) [Example 91, N-(3-bromophenyl)-7-{2-[4-(2-methoxyethyl)-1-piperazinyl]-2-oxoethyl}-5,6,7,8-tetrahydro[1]benzothieno[2,3-d]pyrimidin-4-amine], the IC50 in test [1] and in test [2] was below 50 µM in each case.
Turning to `CN(C)[C@@H]1CCN(C(=O)CC2CCc3c(sc4ncnc(Nc5cccc(Br)c5)c34)C2)C1` (stereo partly drawn) [Example 92, N-(3-bromophenyl)-7-{2-[(3R)-3-(dimethylamino)-1-pyrrolidinyl]-2-oxoethyl}-5,6,7,8-tetrahydro[1]benzothieno[2,3-d]pyrimidin-4-amine], the IC50 in test [1] and in test [2] was below 5 µM in each case.
In the case of `COCCN1CCN(CCC2CCc3c(sc4ncnc(Nc5cccc(Br)c5)c34)C2)CC1` (centres unmarked) [Example 93, N-(3-bromophenyl)-7-{2-[4-(2-methoxyethyl)-1-piperazinyl]ethyl}-5,6,7,8-tetrahydro[1]benzothieno[2,3-d]pyrimidin-4-amine], the IC50 in test [1] and in test [2] was below 5 µM in each case.
Consider `CN(C)[C@@H]1CCN(CCC2CCc3c(sc4ncnc(Nc5cccc(Br)c5)c34)C2)C1` (stereo partly drawn) [Example 94, N-(3-bromophenyl)-7-{2-[(3R)-3-(dimethylamino)-1-pyrrolidinyl]ethyl}-5,6,7,8-tetrahydro[1]benzothieno[2,3-d]pyrimidin-4-amine], for which the IC50 in test [1] and in test [2] was below 5 µM throughout.
For the compound `CC(C)(O)CC1CCc2c(sc3ncnc(Nc4cccc(Br)c4)c23)C1` (centres unmarked) [Example 95, 1-{4-[(3-bromophenyl)amino]-5,6,7,8-tetrahydro[1]benzothieno[2,3-d]pyrimidin-7-yl}-2-methyl-2-propanol], the results for the IC50 in test [1] and in test [2] were below 50 µM and below 5 µM, respectively.
Take `COCCN(C)CCC1CCc2c(sc3ncnc(Nc4ccc(F)c(Cl)c4)c23)C1` (centres unmarked) [Example 96, N-(3-chloro-4-fluorophenyl)-7-{2-[(2-methoxyethyl)(methyl)amino]ethyl}-5,6,7,8-tetrahydro[1]benzothieno[2,3-d]pyrimidin-4-amine]: the IC50 in test [1] and in test [2] was below 5 µM throughout.
Consider `CS(=O)(=O)CCNCCC1CCc2c(sc3ncnc(Nc4ccc(F)c(Cl)c4)c23)C1` (centres unmarked) [Example 97, N-(3-chloro-4-fluorophenyl)-7-(2-{[(2-methylsulfonyl)ethyl]amino}ethyl)-5,6,7,8-tetrahydro[1]benzothieno[2,3-d]pyrimidin-4-amine], for which the IC50 in test [1] and in test [2] was below 5 µM in each case.
As to `CN(C)CCNCCC1CCc2c(sc3ncnc(Nc4ccc(F)c(Cl)c4)c23)C1` (centres unmarked) [Example 98, N^1-(2-{4-[(3-chloro-4-fluorophenyl)amino]-5,6,7,8-tetrahydro[1]benzothieno[2,3-d]pyrimidin-7-yl}ethyl)-N^2,N^2-dimethyl-1,2-ethanediamine], the IC50 in test [1] and in test [2] was below 5 µM in each case.
As for `Fc1ccc(Nc2ncnc3sc4c(c23)CCC(CCN2CCN(Cc3ccncc3)CC2)C4)cc1Cl` (centres unmarked) [Example 99, N-(3-chloro-4-fluorophenyl)-7-{2-[4-(4-pyridinylmethyl)-1-piperazinyl]ethyl}-5,6,7,8-tetrahydro[1]benzothieno[2,3-d]pyrimidin-4-amine], the IC50 in test [1] is below 50 µM; in test [2], below 5 µM.
Turning to `CN(C)[C@@H]1CCN(CCC2CCc3c(sc4ncnc(Nc5ccc(F)c(Cl)c5)c34)C2)C1` (stereo partly drawn) [Example 100, N-(3-chloro-4-fluorophenyl)-7-{2-[(3R)-3-(dimethylamino)-1-pyrrolidinyl]ethyl}-5,6,7,8-tetrahydro[1]benzothieno[2,3-d]pyrimidin-4-amine], the IC50 in test [1] and in test [2] was below 50 µM in each case.
Take `COCCC1CCc2c(sc3ncnc(Nc4ccc(F)c(Cl)c4)c23)C1` (centres unmarked) [Example 101, N-(3-chloro-4-fluorophenyl)-7-(2-methoxyethyl)-5,6,7,8-tetrahydro[1]benzothieno[2,3-d]pyrimidin-4-amine]: the IC50 is below 50 µM in test [1] and below 5 µM in test [2].
